Converted amounts (≈) assume the structure as drawn. One block for each compound: values may come before it.
What was measured:
Escherichia coli [1] = assay: Antibacterial activity against Escherichia coli AG102; format: functional
Escherichia coli [2] = assay: Antibacterial activity against Escherichia coli AG102 in presence of ciprofloxacin; format: functional
Listeria monocytogenes = assay: Antibacterial activity against Listeria monocytogenes ATCC 19115 after 24 hrs by CLSI protocol based cup-plate agar diffusion method; format: functional
Pseudomonas aeruginosa [3] = assay: Antibacterial activity against Pseudomonas aeruginosa ATCC 27853 after 24 hrs by CLSI protocol based cup-plate agar diffusion method; format: functional
Salmonella typhimurium = assay: Antibacterial activity against Salmonella typhimurium ATCC 14028 after 24 hrs by CLSI protocol based cup-plate agar diffusion method; format: functional, Salmonella enterica subsp. enterica serovar Typhimurium; conditions: Salmonella enterica
Staphylococcus aureus [4] = assay: Antibacterial activity against Staphylococcus aureus ATCC 49444 after 24 hrs by CLSI protocol based cup-plate agar diffusion method; format: functional
Staphylococcus aureus [5] = assay: Antibacterial activity against Staphylococcus aureus ATCC 25923 by CLSI protocol based microdilution method; format: functional, organism-based
Staphylococcus aureus [6] = assay: Antibacterial activity against Staphylococcus aureus ATCC 6538 by CLSI protocol based microdilution method; format: functional, organism-based
Pseudomonas aeruginosa [7] = assay: Antibacterial activity against Pseudomonas aeruginosa; format: functional
Staphylococcus aureus [8] = assay: Antibacterial activity against Staphylococcus aureus; format: functional
Raoultella planticola = assay: Antibacterial activity against Klebsiella planticola; format: functional
Escherichia coli [9] = assay: Antibacterial activity against Escherichia coli; format: functional
Bacillus subtilis [10] = assay: Antibacterial activity against Bacillus subtilis; format: functional
Staphylococcus aureus [11] = assay: Antibacterial activity against Staphylococcus aureus MLS16; format: functional
Micrococcus luteus = assay: Antibacterial activity against Micrococcus luteus; format: functional
Staphylococcus aureus [12] = assay: Antibacterial activity against Staphylococcus aureus MTCC 121 after 7 days by two-fold serial dilution method; format: functional; conditions: MTCC 121, 168 h, time 7 day
Pseudomonas aeruginosa [13] = assay: Antibacterial activity against Pseudomonas aeruginosa MTCC 2453 after 7 days by two-fold serial dilution method; format: functional; conditions: MTCC 2453, 168 h, time 7 day
Escherichia coli [14] = assay: Antibacterial activity against Escherichia coli MTCC 40 after 7 days by two-fold serial dilution method; format: functional; conditions: MTCC 40, 168 h, time 7 day
Bacillus subtilis [15] = assay: Antibacterial activity against Bacillus subtilis […] after 7 days by two-fold serial dilution method; format: functional; conditions: 168 h, time 7 day

- MIC (Escherichia coli [1]): 128 µg/mL (≈ 353 µM)
- MIC (Escherichia coli [2]): 0.03 µg/mL
Compound: O=C(Nc1ccc(Cc2nc3ccccc3s2)cc1)c1ccc(F)cc1

- MIC (Listeria monocytogenes): 1.9 µg/mL (≈ 4.24 µM)
- MIC (Pseudomonas aeruginosa [3]): 1.9 µg/mL (≈ 4.24 µM)
- MIC (Salmonella typhimurium): 62.5 µg/mL (≈ 139 µM)
- MIC (Staphylococcus aureus [4]): 31.2 µg/mL (≈ 69.5 µM)
Compound: CCN(CC)c1ccc(/C=N\n2c(S)nnc2-c2sc(-c3ccccc3)nc2C)cc1

- MIC (Listeria monocytogenes): 1.9 µg/mL (≈ 4.66 µM)
- MIC (Pseudomonas aeruginosa [3]): 1.9 µg/mL (≈ 4.66 µM)
- MIC (Salmonella typhimurium): 31.2 µg/mL (≈ 76.6 µM)
- MIC (Staphylococcus aureus [4]): 31.2 µg/mL (≈ 76.6 µM)
Compound: COc1cccc(/C=N\n2c(S)nnc2-c2sc(-c3ccccc3)nc2C)c1

- MIC (Escherichia coli [1]): 256 µg/mL (≈ 743 µM)
- MIC (Escherichia coli [2]): 0.125 µg/mL
Compound: O=C(Cc1ccccc1)Nc1ccc(-c2nc3ccccc3s2)cc1

- IC50 (Staphylococcus aureus [5]): 1.8 µg/mL (≈ 3.8 µM)
- IC50 (Staphylococcus aureus [6]): 6.9 µg/mL (≈ 14.6 µM)
Compound: COCCn1cc(-c2csc(-c3cn(C(=O)OC(C)(C)C)c4ccccc34)n2)c2ccccc21

- MIC (Escherichia coli [1]): 512 µg/mL (≈ 1430 µM)
- MIC (Escherichia coli [2]): 0.004 µg/mL
Compound: Cc1ccc(CC(=O)Nc2ccc(-c3nc4ccccc4s3)cc2)cc1

- MIC (Listeria monocytogenes): 1.9 µg/mL (≈ 4.8 µM)
- MIC (Pseudomonas aeruginosa [3]): 1.9 µg/mL (≈ 4.8 µM)
- MIC (Salmonella typhimurium): 62.5 µg/mL (≈ 158 µM)
- MIC (Staphylococcus aureus [4]): 31.2 µg/mL (≈ 78.9 µM)
Compound: Cc1nc(-c2ccccc2)sc1-c1nnc(S)n1/N=C\c1ccc(F)cc1

- MIC (Pseudomonas aeruginosa [7]): 3.9 µg/mL (≈ 6.96 µM)
- MIC (Staphylococcus aureus [8]): 7.8 µg/mL (≈ 13.9 µM)
- MIC (Escherichia coli [9]): 7.8 µg/mL (≈ 13.9 µM)
- MIC (Bacillus subtilis [10]): 1.9 µg/mL (≈ 3.39 µM)
- MIC (Staphylococcus aureus [11]): 7.8 µg/mL (≈ 13.9 µM)
- MIC (Micrococcus luteus): 3.9 µg/mL (≈ 6.96 µM)
Compound: Cc1ccc(-c2csc(N/N=C/c3cn(-c4nc5ccccc5s4)nc3-c3cc4ccccc4oc3=O)n2)cc1
- MIC (Raoultella planticola): 3.9 µg/mL (≈ 6.96 µM)

- MIC (Staphylococcus aureus [12]): 1.56 µg/mL (≈ 2.66 µM)
- MIC (Pseudomonas aeruginosa [13]): 1.56 µg/mL (≈ 2.66 µM)
- MIC (Escherichia coli [14]): 3.12 µg/mL (≈ 5.32 µM)
- MIC (Bacillus subtilis [15]): 1.56 µg/mL (≈ 2.66 µM)
Compound: O=C(NN1C(=O)/C(=C/c2cccc([N+](=O)[O-])c2)SC1c1cccc(Br)c1)c1ccc(-c2ccccc2)cc1 (configuration not stated)

- MIC (Pseudomonas aeruginosa [7]): 7.8 µg/mL (≈ 12.5 µM)
- MIC (Staphylococcus aureus [8]): 7.8 µg/mL (≈ 12.5 µM)
- MIC (Escherichia coli [9]): 7.8 µg/mL (≈ 12.5 µM)
- MIC (Bacillus subtilis [10]): 7.8 µg/mL (≈ 12.5 µM)
- MIC (Staphylococcus aureus [11]): 7.8 µg/mL (≈ 12.5 µM)
- MIC (Micrococcus luteus): 7.8 µg/mL (≈ 12.5 µM)
Compound: O=c1oc2ccccc2cc1-c1nn(-c2nc3ccccc3s2)cc1/C=N/Nc1nc(-c2ccc(-c3ccccc3)cc2)cs1
- MIC (Raoultella planticola): 31.2 µg/mL (≈ 50.1 µM)

- MIC (Listeria monocytogenes): 1.9 µg/mL (≈ 4.95 µM)
- MIC (Pseudomonas aeruginosa [3]): 1.9 µg/mL (≈ 4.95 µM)
- MIC (Salmonella typhimurium): 62.5 µg/mL (≈ 163 µM)
- MIC (Staphylococcus aureus [4]): 15.6 µg/mL (≈ 40.7 µM)
Compound: Cc1nc(-c2ccccc2)sc1-c1nnc(S)n1/N=C\c1cccs1

- MIC (Staphylococcus aureus [12]): 6.25 µg/mL (≈ 13.5 µM)
- MIC (Pseudomonas aeruginosa [13]): 6.25 µg/mL (≈ 13.5 µM)
- MIC (Escherichia coli [14]): 6.25 µg/mL (≈ 13.5 µM)
- MIC (Bacillus subtilis [15]): 3.12 µg/mL (≈ 6.74 µM)
Compound: O=C(NN1C(=O)/C(=C/c2ccccc2)SC1c1ccccc1)c1ccc(-c2ccccc2)cc1 (configuration not stated)

- IC50 (Staphylococcus aureus [5]): 0.2 µg/mL (≈ 0.493 µM)
- IC50 (Staphylococcus aureus [6]): 21 µg/mL (≈ 51.8 µM)
Compound: COCCn1cc(-c2nc(-c3cn(C)c4ccccc34)cs2)c2cc(F)ccc21

- MIC (Pseudomonas aeruginosa [7]): > 125 µg/mL
- MIC (Staphylococcus aureus [8]): > 125 µg/mL
- MIC (Escherichia coli [9]): 7.8 µg/mL (≈ 10.1 µM)
- MIC (Bacillus subtilis [10]): 3.9 µg/mL (≈ 5.05 µM)
- MIC (Staphylococcus aureus [11]): 7.8 µg/mL (≈ 10.1 µM)
- MIC (Micrococcus luteus): > 125 µg/mL
Compound: O=c1oc2c(Br)cc(Br)cc2cc1-c1csc(N/N=C/c2cn(-c3nc4ccccc4s3)nc2-c2cc3ccccc3oc2=O)n1
- MIC (Raoultella planticola): 7.8 µg/mL (≈ 10.1 µM)

- MIC (Escherichia coli [1]): 256 µg/mL (≈ 743 µM)
- MIC (Escherichia coli [2]): 0.016 µg/mL
Compound: O=C(Nc1ccc(Cc2nc3ccccc3s2)cc1)c1ccccc1

- MIC (Staphylococcus aureus [12]): 6.25 µg/mL (≈ 13 µM)
- MIC (Pseudomonas aeruginosa [13]): 12.5 µg/mL (≈ 26 µM)
- MIC (Escherichia coli [14]): 6.25 µg/mL (≈ 13 µM)
- MIC (Bacillus subtilis [15]): 3.12 µg/mL (≈ 6.49 µM)
Compound: O=C(NN1C(=O)/C(=C/c2ccccc2)SC1c1cccc(F)c1)c1ccc(-c2ccccc2)cc1 (configuration not stated)

- MIC (Staphylococcus aureus [12]): 3.12 µg/mL (≈ 6.28 µM)
- MIC (Pseudomonas aeruginosa [13]): 12.5 µg/mL (≈ 25.1 µM)
- MIC (Escherichia coli [14]): 3.12 µg/mL (≈ 6.28 µM)
- MIC (Bacillus subtilis [15]): 6.25 µg/mL (≈ 12.6 µM)
Compound: O=C(NN1C(=O)/C(=C/c2ccc(Cl)cc2)SC1c1ccccc1)c1ccc(-c2ccccc2)cc1 (configuration not stated)

- MIC (Escherichia coli [1]): 128 µg/mL (≈ 353 µM)
- MIC (Escherichia coli [2]): 0.03 µg/mL
Compound: O=C(Cc1ccc(F)cc1)Nc1ccc(-c2nc3ccccc3s2)cc1

- MIC (Pseudomonas aeruginosa [7]): > 125 µg/mL
- MIC (Staphylococcus aureus [8]): 7.8 µg/mL (≈ 11.7 µM)
- MIC (Escherichia coli [9]): 7.8 µg/mL (≈ 11.7 µM)
- MIC (Bacillus subtilis [10]): 15.6 µg/mL (≈ 23.5 µM)
- MIC (Staphylococcus aureus [11]): 7.8 µg/mL (≈ 11.7 µM)
- MIC (Micrococcus luteus): > 125 µg/mL
Compound: O=c1oc2ccc3ccccc3c2cc1-c1csc(N/N=C/c2cn(-c3nc4ccccc4s3)nc2-c2cc3ccccc3oc2=O)n1
- MIC (Raoultella planticola): 7.8 µg/mL (≈ 11.7 µM)

- MIC (Listeria monocytogenes): 1.9 µg/mL (≈ 4.66 µM)
- MIC (Pseudomonas aeruginosa [3]): 1.9 µg/mL (≈ 4.66 µM)
- MIC (Salmonella typhimurium): 62.5 µg/mL (≈ 153 µM)
- MIC (Staphylococcus aureus [4]): 31.2 µg/mL (≈ 76.6 µM)
Compound: COc1ccccc1/C=N\n1c(S)nnc1-c1sc(-c2ccccc2)nc1C

- MIC (Escherichia coli [1]): 256 µg/mL (≈ 680 µM)
- MIC (Escherichia coli [2]): 0.03 µg/mL
Compound: O=C(Cc1ccc(F)cc1)Nc1ccc(Cc2nc3ccccc3s2)cc1

- IC50 (Staphylococcus aureus [5]): 2.9 µg/mL (≈ 5.68 µM)
- IC50 (Staphylococcus aureus [6]): 18.8 µg/mL (≈ 36.8 µM)
Compound: COCCn1cc(-c2csc(-c3cn(CCOC)c4ccc(Br)cc34)n2)c2ccccc21
